Assay results as given in patent US9199965B2, “Benzoimidazole derivatives and pharmaceutical composition comprising the same” (Daewoong Co., Ltd., priority 2005, dated 2015).

Each compound was assayed against T1, rat TRPV1 (Rattus norvegicus, UniProt O35433) (assay: Assay for inhibitory activity against VR1 patch clamp activity (capsaicin current, inside-out patch)). Conditions: 1 μM compound with 10 μM capsaicin; rat TRPV1-transfected HEK293, inside-out patch; relative to capsaicin current before compound.
T1 construct: expressed in transfected cells; host or cells: HEK293
T1 sequence (O35433 whole entry): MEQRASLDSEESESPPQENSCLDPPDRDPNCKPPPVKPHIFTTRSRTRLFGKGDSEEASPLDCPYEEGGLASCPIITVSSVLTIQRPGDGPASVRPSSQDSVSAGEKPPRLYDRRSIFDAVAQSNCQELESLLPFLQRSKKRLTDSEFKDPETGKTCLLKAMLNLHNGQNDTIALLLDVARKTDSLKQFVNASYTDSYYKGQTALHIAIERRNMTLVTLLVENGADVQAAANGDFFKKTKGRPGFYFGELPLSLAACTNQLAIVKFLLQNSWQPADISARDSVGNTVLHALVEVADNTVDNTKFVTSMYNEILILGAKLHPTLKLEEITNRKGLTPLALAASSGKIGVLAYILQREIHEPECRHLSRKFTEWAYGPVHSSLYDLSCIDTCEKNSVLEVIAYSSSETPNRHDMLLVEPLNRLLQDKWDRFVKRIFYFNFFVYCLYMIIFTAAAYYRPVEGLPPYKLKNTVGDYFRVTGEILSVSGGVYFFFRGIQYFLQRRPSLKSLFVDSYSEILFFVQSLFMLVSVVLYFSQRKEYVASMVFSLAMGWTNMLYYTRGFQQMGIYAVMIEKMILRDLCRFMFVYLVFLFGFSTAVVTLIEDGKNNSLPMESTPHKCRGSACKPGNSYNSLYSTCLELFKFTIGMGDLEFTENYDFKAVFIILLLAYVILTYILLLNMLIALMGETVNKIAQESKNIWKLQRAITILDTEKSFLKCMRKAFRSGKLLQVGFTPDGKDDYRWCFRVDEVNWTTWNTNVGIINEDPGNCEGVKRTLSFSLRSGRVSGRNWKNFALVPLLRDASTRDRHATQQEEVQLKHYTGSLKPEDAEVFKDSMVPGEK
Assay type: cell-based
Experimental: Each of the compounds synthesized in the examples were dissolved in dimethyl sulfoxide (DMSO) at a concentration of 10 mM. For use in the assay for inhibitory activity against patch clamp activity, the solutions were diluted to a concentration of 1 μM with the same physiological saline as in the pipette solution of Table 1, below.
2) Assay for Inhibitory Activity Against VR1 Patch Clamp Activity
In this experiment, changes in VR1 activity were recorded in current using an electrophysiological technique.
For use in this experiment, a rat TRPV1 cDNA was transfected into a subcultured HEK293 strain with the aid of lipofectamin.
The rat TRPV1 gene-transfected HEK293 cells were detached from the cell culture dishes with trypsin and distributed on a patch clamp recording chamber.
A cover glass slip on the bottom of the patch clamp recording chamber was treated for 15 min or longer with a […] poly-L-lysine solution so that the HEK cells would readily adhere thereto. Cellular membranes were ruptured at room temperature (˜25° C.) from randomly selected HEK cells to perform an inside-out patch clamp technique. 10 μM of capsaicin was fed into the chamber (cytoplasmic side) to activate a capsaicin current through the VR1. When the capsaicin current reached a stable stage, each compound was added along with 10 μM of capsaicin to record the inhibitory activity of the compounds with regard to the current. The inhibition was expressed as percentages.
Detected current was amplified using a Digidata 1200B A/D converter and an Axopatch 1D amplifier (Axon instruments Inc.), and the data were recorded and analyzed with the aid of a computer. The inhibitory activity of each compound was expressed as a percentage relative to the capsaicin current immediately before the administration of each compound.
In the case of `Fc1ccc2nc(-c3ccc(Oc4ccccc4)cc3)[nH]c2c1` [Compound 193, 6-fluoro-2-(4-phenoxyphenyl)-1H-benzoimidazole], the inhibition at 1 µM is reported as 50%.

The compounds below were run against T2, human vanilloid-1 (hVR1) (Homo sapiens, UniProt Q8NER1) (assay: Calcium influx of vanilloid receptor in hVR1-HEK293 cells (capsaicin-induced, Fluo-3/AM)). Conditions: 1 μM capsaicin-induced intracellular calcium influx, read-out: Inhibitory Activity IC50.
T2 construct: expressed in transfected cells; host or cells: HEK293 Tet-on (hVR1-HEK293), doxycycline-induced
T2 sequence (Q8NER1 whole entry): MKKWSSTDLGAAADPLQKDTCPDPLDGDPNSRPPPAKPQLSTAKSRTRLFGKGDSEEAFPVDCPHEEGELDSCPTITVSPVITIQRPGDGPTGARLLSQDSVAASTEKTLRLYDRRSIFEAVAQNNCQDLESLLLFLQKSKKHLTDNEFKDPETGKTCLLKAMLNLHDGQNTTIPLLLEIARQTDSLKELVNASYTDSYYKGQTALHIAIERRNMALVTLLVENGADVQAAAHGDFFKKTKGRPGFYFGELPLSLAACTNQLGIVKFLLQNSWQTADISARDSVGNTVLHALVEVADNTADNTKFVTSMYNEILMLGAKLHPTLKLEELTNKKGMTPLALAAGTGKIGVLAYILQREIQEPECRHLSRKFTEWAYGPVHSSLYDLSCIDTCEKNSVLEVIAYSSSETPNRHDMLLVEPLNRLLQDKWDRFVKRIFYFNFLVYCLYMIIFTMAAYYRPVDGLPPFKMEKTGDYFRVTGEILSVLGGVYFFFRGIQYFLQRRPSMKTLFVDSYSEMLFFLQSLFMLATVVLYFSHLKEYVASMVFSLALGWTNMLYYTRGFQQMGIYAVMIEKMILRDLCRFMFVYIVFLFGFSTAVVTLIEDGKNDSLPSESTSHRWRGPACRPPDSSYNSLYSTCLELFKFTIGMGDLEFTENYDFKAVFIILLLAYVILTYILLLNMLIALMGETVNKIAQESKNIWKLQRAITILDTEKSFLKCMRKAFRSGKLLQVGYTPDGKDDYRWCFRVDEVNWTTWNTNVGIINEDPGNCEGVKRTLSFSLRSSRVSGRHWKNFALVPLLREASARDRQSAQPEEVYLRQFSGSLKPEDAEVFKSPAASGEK
Assay type: cell-based
Experimental: Experiments for calcium influx were performed to measure the activity of the compounds as antagonists.
The cell strain hVR1-HEK293 is the human embryonic kidney (HEK) 293 Tet-on cell transfected with a human vanilloid-1 gene (pTRE2hyg-hVR1, 7.8 kb), which is capable of controlling the expression of VR1 according to the administration of deoxycycline, a tetracycline derivative analog. In a medium supplemented with deoxycycline two days before calcium influx experiments, the cell strain was cultured to induce the expression of VR1. After being grown to a confluency of about 80% in T75 flasks, hVR1-HEK293 was detached from the flask using trypsin. Cells harvested by centrifugation were suspended in a medium supplemented with 1 μg/mL of deoxycycline and diluted to a density of 2-4×10^5 cells/mL, after which a 100 μL aliquot of the cell suspension was added to each well of 96 well black plates. Before the measurement of calcium influx, the cells were incubated for two days at 37° C. in a 5% CO2 incubator.
For use in calcium influx experiments, each compound was dissolved in dimethyl sulfoxide (DMSO).
To measure an intracellular calcium influx, cells were incubated at 37° C. for 90 min in a medium containing the calcium indicator Fluo-3/AM so as to allow the fluorescent dye to penetrate into the cells. Then, the cells were washed three times with D-PBS (Dulbecco's phosphate buffered saline) containing 10 mM HEPES to remove the fluorescent dye which remained outside. 193 μL aliquot of D-PBS was added to each well, followed by the addition of various concentrations of compounds thereto. In order to measure the antagonistic activity of the compounds, calcium influx was induced by treatment with 1 μM capsaicin. The inhibitory effect of each compound on 1 μM capsaicin-induced intracellular calcium influx according to compound concentration was measured using a fluorescent analyzer and the data thus obtained were analyzed on the basis of the Hill's equation.
In the case of `CC(C)(C)c1ccc2nc(-c3ccc(-c4ncccc4C(F)(F)F)cn3)[nH]c2c1` [Compound 159, 6′-(6-tert-butyl-1H-benzoimidazole-2-yl)-3-trifluoromethyl-[2,3′]bipyridine], the IC50 is reported as 3950 nM.
`FC(F)(F)c1cc(Br)c2nc(-c3ccc(-c4ncccc4Cl)cc3)[nH]c2c1` [Compound 14, 4-bromo-2-(4-(3-chloropyridin-2-yl)phenyl)-6-(trifluoromethyl)-1H-benzoimidazole] showed an IC50 of 168 nM.
`CC(C)(C)c1ccc2nc(-c3ccc(-c4ccccn4)cc3)[nH]c2c1` [Compound 47, 6-tert-butyl-2-(4-pyridin-2-ylphenyl)-1H-benzoimidazole] showed an IC50 of 82 nM.
In the case of `FC(F)(F)c1cc(C(F)(F)F)c2nc(-c3ccc(-c4ncccc4Cl)c4ccccc34)[nH]c2c1` [Compound 106, 2-[4-(3-chloropyridin-2-yl)naphthalen-1-yl]-4,6-bistrifluoromethyl-1H-benzoimidazole], the IC50 is reported as 275 nM.
`Clc1cc2nc(-c3ccc(-c4ccccn4)cn3)[nH]c2cc1Cl` [Compound 173, 5,6-dichloro-2-(5-(pyridin-2-yl)pyridin-2-yl)-1H-benzoimidazole] was tested, and the IC50 was 46 nM.
Compound `Clc1cc2nc(-c3ccc(-c4ccccn4)cc3)[nH]c2cc1Cl` [Compound 50, 5,6-dichloro-2-(4-(pyridin-2-yl)phenyl)-1H-benzoimidazole] has an IC50 of 292 nM.
`FC(F)(F)c1cc(Br)c2nc(-c3ccc(-c4ncccc4Cl)cn3)[nH]c2c1` [Compound 140, 4-bromo-2-(5-(3-chloropyridin-2-yl)pyridin-2-yl)-6-(trifluoromethyl)-1H-benzoimidazole] was tested, and the IC50 was 66 nM.
With `Clc1ccc2nc(-c3ccc(-c4cccc5ccccc45)nc3)[nH]c2c1` [Compound 177, 6-chloro-2-(6-(naphthalen-1-yl)pyridin-3-yl)-1H-benzoimidazole] the IC50 was 151 nM.
`CC(C)(C)c1ccc2nc(-c3ccc(-c4ccccn4)cc3F)[nH]c2c1` [Compound 82, 6-tert-butyl-2-(2-fluoro-4-pyridin-2-yl)phenyl-1H-benzoimidazole] was tested, and the IC50 was 263 nM.
Work on `FC(F)(F)c1ccc2nc(-c3ccc(-c4ncccc4Cl)cn3)[nH]c2c1` [Compound 136, 3-chloro-6′-(6-trifluoromethyl-1H-benzoimidazole-2-yl)-[2,3′]bipyridine] yielded an IC50 of 952 nM.
Work on `CC(C)(C)c1ccc2nc(-c3ccc(-c4ncccc4C#N)cc3)[nH]c2c1` [Compound 60] yielded an IC50 of 150 nM.
`Fc1ccc2nc(-c3ccc(-c4ncccc4C(F)(F)F)cn3)[nH]c2c1` [Compound 166, 6-fluoro-2-(5-(3-(trifluoromethyl)pyridin-2-yl)pyridin-2-yl)-1H-benzoimidazole] was tested, and the IC50 was 3900 nM.
`Fc1ccc2nc(-c3ccc(-c4ccccn4)cc3)[nH]c2c1` [Compound 52, 6-fluoro-2-(4-(pyridin-2-yl)phenyl)-1H-benzoimidazole] showed an IC50 of 1400 nM.
`Clc1ccc2nc(-c3ccc(-c4ncccc4Cl)cn3)[nH]c2c1` [Compound 137, 3-chloro-6′-(6-chloro-1H-benzoimidazole-2-yl)-[2,3′]bipyridine] was tested, and the IC50 was 569 nM.
`FC(F)(F)c1cccnc1-c1ccc(-c2nc3ccc(Cl)cc3[nH]2)nc1` [Compound 160, 6′-(6-chloro-1H-benzoimidazole-2-yl)-3-trifluoromethyl-[2,3′]bipyridine] was tested, and the IC50 was 258 nM.
In the case of `Clc1cc(-c2nc3ccc(Br)cc3[nH]2)ccc1-c1ccccn1` [Compound 130, 6-bromo-2-(3-chloro-4-(pyridin-2-yl)phenyl)-1H-benzoimidazole], the IC50 is reported as 436 nM.
`FC(F)(F)c1ccc2nc(-c3cccc(Cn4cc(Cl)cn4)c3)[nH]c2c1` [Compound 195, 2-[3-(4-chloropyrazol-1-ylmethyl)phenyl]-6-trifluoromethyl-1H-benzoimidazole] showed an IC50 of 1400 nM.
`FC(F)(F)c1ccc2nc(-c3ccc(-c4ncccc4C(F)(F)F)cc3Cl)[nH]c2c1` [Compound 97, 2-[2-chloro-4-(3-trifluoromethylpyridin-2-yl)phenyl]-6-trifluoromethyl-1H-benzoimidazole] was tested, and the IC50 was 644 nM.
With `Clc1cc2nc(-c3ccc(-c4ccccn4)c(Cl)c3)[nH]c2cc1Cl` [Compound 129, 5,6-dichloro-2-(3-chloro-4-(pyridin-2-yl)phenyl)-1H-benzoimidazole] the IC50 was 3960 nM.
For `FC(F)(F)c1ccc2nc(-c3ccc(-c4cccc5ccccc45)nc3)[nH]c2c1` [Compound 176, 6-(trifluoromethyl)-2-(6-(naphthalen-1-yl)pyridin-3-yl)-1H-benzoimidazole], the IC50 was 229 nM.
With `FC(F)(F)c1cccnc1-c1ccc(-c2nc3ncc(Br)cc3[nH]2)cc1` [Compound 39] the IC50 was 19 nM.
With `FC(F)(F)c1cc(C(F)(F)F)c2nc(-c3ccc(-c4ccccn4)cc3)[nH]c2c1` [Compound 51, 4,6-bis(trifluoromethyl)-2-(4-(pyridin-2-yl)phenyl)-1H-benzoimidazole] the IC50 was 246 nM.
In the case of `CC(C)(C)c1ccc2nc(-c3ccc(-c4cccc5ccccc45)nc3)[nH]c2c1` [Compound 174, 6-tert-butyl-2-(6-naphthalen-1-ylpyridin-3-yl)-1H-benzoimidazole], the IC50 is reported as 282 nM.
For `FC(F)(F)c1cc(Cl)c2nc(-c3ccc(-c4ccccn4)cc3)[nH]c2c1` [Compound 49, 4-chloro-6-(trifluoromethyl)-2-(4-(pyridin-2-yl)phenyl)-1H-benzoimidazole], the IC50 was 284 nM.
In the case of `FC(F)(F)c1cc(Br)c2nc(-c3ccc(-c4nccc(C(F)(F)F)n4)cc3)[nH]c2c1` [Compound 56, 4-bromo-6-(trifluoromethyl)-2-(4-(4-(trifluoromethyl)pyrimidin-2-yl)phenyl)-1H-benzoimidazole], the IC50 is reported as 22 nM.
In the case of `N#Cc1cccnc1-c1ccc(-c2nc3ccc(C(F)(F)F)cc3[nH]2)cc1` [Compound 59, 2-(4-(6-(trifluoromethyl)-1H-benzoimidazole-2-yl)phenyl)pyridin-3-carbonitrile], the IC50 is reported as 296 nM.
`Brc1cnc2nc(-c3ccc(-c4ccccn4)cc3)[nH]c2c1` [Compound 53, 6-bromo-2-(4-(pyridin-2-yl)phenyl)-1H-imidazo[4,5-b]pyridine] gave an IC50 of 145 nM.
`FC(F)(F)c1ccc2nc(-c3ccc(-c4ccccn4)cc3)[nH]c2c1` [Compound 48, 6-(trifluoromethyl)-2-(4-(pyridin-2-yl)phenyl)-1H-benzoimidazole] was tested, and the IC50 was 160 nM.
For `FC(F)(F)c1cccnc1-c1ccc(-c2nc3cc(Cl)c(Cl)cc3[nH]2)cc1` [Compound 35, 5,6-dichloro-2-[4-(3-trifluoromethylpyridin-2-yl)phenyl]-1H-benzoimidazole], the IC50 was 39 nM.
Compound `Clc1cccnc1-c1ccc(-c2nc3ccc(Br)cc3[nH]2)nc1` [Compound 141, 6-bromo-2-(5-(3-chloropyridin-2-yl)pyridin-2-yl)-1H-benzoimidazole] has an IC50 of 2400 nM.
In the case of `CC(C)(C)c1ccc2nc(-c3ccc(-c4ncccn4)cc3)[nH]c2c1` [Compound 58, 6-tert-butyl-2-(4-(pyrimidin-2-yl)phenyl)-1H-benzoimidazole], the IC50 is reported as 145 nM.
With `FC(F)(F)c1ccc2nc(-c3ccc(-c4ncccc4C(F)(F)F)c4ccccc34)[nH]c2c1` [Compound 113, 6-trifluoromethyl-2-[4-(3-trifluoromethylpyridin-2-yl)naphthalen-1-yl]-1H-benzoimidazole] the IC50 was 363 nM.
In the case of `Clc1cccnc1-c1ccc(-c2nc3ccc(Br)cc3[nH]2)cc1` [Compound 13, 6-bromo-2-(4-(3-chloropyridin-2-yl)phenyl)-1H-benzoimidazole], the IC50 is reported as 289 nM.
`Fc1ccc2nc(-c3ccc(-c4ncccc4C(F)(F)F)cc3)[nH]c2c1` [Compound 38, 6-fluoro-2-(4-(3-(trifluoromethyl)pyridin-2-yl)phenyl)-1H-benzoimidazole] showed an IC50 of 454 nM.
